Results as given in patent publication US9505754B2, “Compound useful for the treatment of degenerative and inflammatory diseases” (GALAPAGOS NV, priority 2009, dated 2016).

Legend:
[1] = tested on: collagen induced arthritis; test: Rat CIA (collagen induced arthritis) model; type: in vivo
Experimental: Completed Freund's adjuvant (CFA) and incomplete Freund's adjuvant (IFA) were purchased from Difco. Bovine collagen type […] (CII), lipopolysaccharide (LPS), and Enbrel were obtained from Chondrex (Isle d'Abeau, France); Sigma (P4252, L'Isle d'Abeau, France), Whyett (25 mg injectable syringe, France) Acros Organics (Palo Alto, Calif.), respectively. All other reagents used were of reagent grade and all solvents were of analytical grade.
Dark Agouti rats (male, 7-8 weeks old) are obtained from Harlan Laboratories (Maison-Alfort, France). DBA/1J mice (male, 7 weeks old) were obtained from Centre d'Elevage et de Reproduction JANVIER (CERJ) (Laval, France). Rats and mice were kept on a 12 hours light/dark cycle (0700-1900). The temperature was maintained at 22° C., and food and water were provided ad libitum.
One day before the experiment, CII solution (2 mg/mL) was prepared with 0.05 M acetic acid and stored at 4° C. Just before the immunization, equal volumes of adjuvant (IFA) and CII were mixed by a homogenizer in a pre-cooled glass bottle in an ice water bath. Extra adjuvant and prolonged homogenization might be required if an emulsion is not formed.
Rat: 0.2 mL of the emulsion is injected intradermally at the base of the tail of each rat on day 1, a second booster intradermal injection (CII solution at 2 mg/mL in CFA 0.1 mL saline) is performed on day 9. This immunization method is modified from published methods (Sims N A et al., (2004) Targeting osteoclasts with zoledronic acid prevents bone destruction in collagen-induced arthritis, Arthritis Rheum. 50 2338-2346; Jou et al., 2005).
The therapeutic effects of the test compounds were tested in the rat or mouse CIA model. Animals were randomly divided into equal groups and each group contained 10 animals. All rats are immunized on day 1 and boosted on day 9. All mice were immunized on day 1 and boosted on day 21. Therapeutic dosing lasted from day 16 to day 30. The negative control group was treated with vehicle (MC 0.5%) and the positive control group with Enbrel (10 mg/kg, 3× week., s.c.). A compound of interest was typically tested at 3 doses, e.g. 3, 10, 30 mg/kg, p.o.
Arthritis was scored according the method of Khachigian 2006, Lin et al 2007 and Nishida et al. 2004). […]
The area under the curve (AUC) from day 1 to day 14 was calculated for each individual rat. The AUC of each animal was divided by the average AUC obtained for the vehicle in the study from which the data on that animal was obtained and multiplied by 100 (i.e. the AUC was expressed as a percentage of the average vehicle AUC per study).
The clinical score difference for each animal was divided by the average clinical score difference obtained for the vehicle in the study from which the data on that animal was obtained and multiplied by 100 (i.e. the difference was expressed as a percentage of the average clinical score difference for the vehicle per study).
Post-mortem, a Larsen’ score was derived for both hind paws of all rats by at least 2 scientists. The average of these scores was calculated to obtain one Larsen’ score per rat. […]

[2] = Microsomal stability, rat; type: in vitro ADME; conditions: rat liver microsomes, 3 μM compound, 1 hour, 37° C.
Experimental: (§1) A 10 mM stock solution of compound in DMSO was diluted 1000 fold in a 182 mM phosphate buffer pH7.4 in a 96 deep well plate (Greiner, Cat no. 780285) and pre-incubated at 37° C.
(§2) 40 μL of deionised water was added to a well of a polypropylene Matrix 2D barcode labelled storage tube (Thermo Scientific) and pre-incubated at 37° C.
(§3) A Glucose-6-phophate-dehydrogenase (G6PDH) working stock solution was prepared in 182 mM phosphate buffer pH7.4 and placed on ice before use. A co-factor containing MgCl2, glucose-6-phosphate and NADP+ was prepared in deionised water and placed on ice before use. […]
(§4) These plates were sealed with sealing mats (MA96RD-04S) of www.kinesis.co.uk and samples were measured at room temperature on LCMS (ZQ 1525 from Waters) under optimized conditions using Quanoptimize to determine the appropriate mass of the parent molecule.
(§5) The samples were analyzed on LCMS with a flow rate of 1 mL/min. […]
(§6) Peak area from the parent compound at time 0 was considered to be 100% remaining. The percentage remaining after 1 hour incubation was calculated from time 0 and was calculated as the percentage remaining. […]
(§7) The data on microsomal stability are expressed as a percentage of the total amount of compound remaining after 60 minutes.

[3] = Microsomal stability, human; type: in vitro ADME; conditions: human liver microsomes, 3 μM compound, 1 hour, 37° C.
Experimental: as §1, §2, §3, §4, §5, §6, §7

Microsomal stability, Rat (percentage of compound remaining after 60 minutes) [2]: 76-100%
Microsomal stability, Human (percentage of compound remaining after 60 minutes) [3]: 76-100%
SMILES: CC1(C)CN(C(=O)c2ccc(-c3cccc4nc(NC(=O)C5CC5)nn34)cc2)C1 [Compound 1, Cyclopropanecarboxylic acid {5-[4-(3,3-dimethyl-azetidine-1-carbonyl)-phenyl]-[1,2,4]triazolo[1,5-a]pyridin-2-yl}-amide]
endpoint clinical score ([1]; rat CIA, from 1 mg/kg): significant improvements
paw swelling ([1]; rat CIA, from 1 mg/kg): significant improvements
AUC of the clinical score ([1]; rat CIA, from 10 mg/kg): significant improvements
Larsen' score ([1]; rat CIA, from 30 mg/kg): significant improvements
efficacy in rat CIA study readouts ([1]; rat, 30, 10, 3 and 1 mg/kg): efficacious in all readouts
